The subject of assay [1] is Fusobacterium nucleatum. The assay is described as follows: Antimicrobial activity against Fusobacterium nucleatum biofilms assessed as decrease in viable cell count at 2 uM after 30 mins. It is filed as functional, organism-based.
The test system of assay [2] is Streptococcus gordonii. Put plainly: Antimicrobial activity against Streptococcus gordonii DL1 ATCC 49818 biofilms assessed as decrease in viable cell count at 25 uM after 30 mins. The assay is classed as functional, organism-based.
The subject of assay [3] is Fusobacterium nucleatum. The assay is described as follows: Antimicrobial activity against Fusobacterium nucleatum planktonic cells at 2 uM after 30 mins. The assay is classed as functional, organism-based.
For the next assay, the system named is Pseudomonas aeruginosa. Put plainly: Antimicrobial activity against Pseudomonas aeruginosa ATCC 47085 by broth dilution assay. The assay is classed as functional. For orientation: Dilution methods test growth across graded concentrations, often in twofold steps.
Assay [4] deals with Fusobacterium nucleatum. The assay is described as follows: Antimicrobial activity against Fusobacterium nucleatum ATCC 49256 by broth dilution assay. The assay is classed as functional.
Assay [5] deals with Fusobacterium nucleatum. Put plainly: Antimicrobial activity against Fusobacterium nucleatum ATCC 25586 by broth dilution assay. It is filed as functional.
A further assay relates to Porphyromonas gingivalis. Put plainly: Antimicrobial activity against Porphyromonas gingivalis W83 ATCC BAA0308 by broth dilution assay. The assay is classed as functional.
Assay [6] deals with Streptococcus gordonii. Put plainly: Antimicrobial activity against Streptococcus gordonii DL1 ATCC 49818 by broth dilution assay. It is filed as functional.
Assay [7] concerns Streptococcus gordonii. Put plainly: Antimicrobial activity against Streptococcus gordonii DL1 ATCC 49818 planktonic cells at 25 uM after 30 mins. It is filed as functional, organism-based.

The source made the active and inactive calls. The calls are words filed in the database; no cut-off is given here.

Take `CC1(C)S[C@@H]2[C@H](NC(=O)[C@H](N)c3ccc(O)cc3)C(=O)N2[C@H]1C(=O)O`: in the assay with Fusobacterium nucleatum [1], the result was inactive.
One may read the MBC as the lowest tested concentration that kills the bacteria rather than only halting them. A higher MBC goes with weaker bactericidal potency. As for H-RRWVRRVRRWVRRVVRVVRRWVRR-OH, the outcome with Streptococcus gordonii [2], in the assay with Fusobacterium nucleatum [3] and in the assay with Streptococcus gordonii [7] was Active. Also, the MBC with Pseudomonas aeruginosa came to 1 µM; against Fusobacterium nucleatum [4], 1 µM; in the assay with Fusobacterium nucleatum [5], 1 µM; against Porphyromonas gingivalis, 50 µM; with Streptococcus gordonii [6] it was 12.5 µM.
Regarding `Cc1ncc([N+](=O)[O-])n1CCO`, in the assay with Fusobacterium nucleatum [1], the outcome was inactive.

The values are drawn from ChEMBL document CHEMBL1145473, “Efficacy of the de novo-derived antimicrobial peptide WLBU2 against oral bacteria” (2007).
